Read-outs that look alike come from different tables or passages of the source.
Target: T1, IDH2 R140Q_P167R cis (Homo sapiens, UniProt P48735, P167R/R140Q)
T1 construct: expressed in transfected cells; host or cells: U-87 MG
T1 sequence (P48735 40-452 R140Q/P167R): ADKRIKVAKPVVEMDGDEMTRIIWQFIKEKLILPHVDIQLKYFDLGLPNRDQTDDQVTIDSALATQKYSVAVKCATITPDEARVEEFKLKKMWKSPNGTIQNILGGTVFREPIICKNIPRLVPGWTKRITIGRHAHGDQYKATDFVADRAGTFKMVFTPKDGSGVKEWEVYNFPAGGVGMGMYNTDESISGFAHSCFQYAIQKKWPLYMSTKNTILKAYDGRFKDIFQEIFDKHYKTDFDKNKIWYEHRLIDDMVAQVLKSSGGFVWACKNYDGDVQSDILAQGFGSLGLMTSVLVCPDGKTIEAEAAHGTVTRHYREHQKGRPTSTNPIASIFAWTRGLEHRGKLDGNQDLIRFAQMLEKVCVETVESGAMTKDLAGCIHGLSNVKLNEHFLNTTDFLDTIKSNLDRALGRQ
Assay: Inhibition of 2-HG production in IDH2 mutant U-87 MG cells
Assay type: cell-based
Conditions: read-out: Relative IC50 (nM) Mean, inhibition of 2-HG production

Compound C=CC(=O)N1CCN([C@@H](CC2CC2)c2ccc([C@H](C)Nc3ncc4c(n3)N(CC)C(=O)OC4)cc2)CC1 [Compound A, 7-[[(1S)-1-[4-[(1S)-2-cyclopropyl-1-(4-prop-2-enoylpiperazin-1-yl)ethyl]phenyl]ethyl]amino]-1-ethyl-4H-pyrimido[4,5-d][1,3]oxazin-2-one] has an IC50 (16 hours incubation, 50K cells/well, 100 μl media/well) of 639 nM and an IC50 (72 hours incubation, 12.5K cells/well) of 104 nM.
